Experimental data as given in PMC10584170, “Machine learning-based phenotypic imaging to characterise the targetable biology of Plasmodium falciparum male gametocytes for the development of transmission-blocking antimalarials” (PLOS Pathogens, 2023).
Read-outs that look alike come from different tables or passages of the source.

Legend:
[1] = system: P. falciparum female gametocytes; experiment: P. falciparum Dual Gamete Formation Assay (PfDGFA), female readout (Pfs25-positive female gametes); type: cell-based, Plasmodium falciparum NF54; settings: for Average inhibition female (%) / % inhibition female (individual replicates) R1 / % inhibition female (individual replicates) R3 / % inhibition female (individual replicates) R4 / inhibition at 2 µM: 24h preincubation with gametocytes; for Selectivity ratio F: HepG2 Tox50 versus female IC50; for IC50: PfDGFA, 24 h incubation with gametocytes before induction, female gamete readout, read-out: Female IC50; for HitlevelF: number of replicates with >50% inhibition in the female readout
Method in brief: (§1)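 Read-outs are automated image counts of exflagellation centres (brightfield, 10 frames over 1 s) and Pfs25-positive female gametes (Cy3 fluorescence).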

[2] = system: P. falciparum male gametocytes; experiment: P. falciparum Dual Gamete Formation Assay (PfDGFA), male readout (exflagellation); type: cell-based, Plasmodium falciparum NF54; settings: for Average inhibition male (%) / % inhibition male (individual replicates) R1 / % inhibition male (individual replicates) R3 / % inhibition male (individual replicates) R4 / inhibition at 2 µM: 24h preincubation with gametocytes; for Selectivity Ratio M: HepG2 Tox50 versus male IC50; for IC50: PfDGFA, 24 h incubation with gametocytes before induction, exflagellation readout, read-out: Male IC50; for HitlevelM: number of replicates with >50% inhibition in the male readout
Method in brief: as §1

[3] = system: HepG2 cells; experiment: HepG2 cytotoxicity counter-screen; settings: cytotoxic activity against HepG2 cells
[4] = Plasmodium falciparum, 2µM, average of replicates, read-out: Average inhibition female (%)
[5] = Plasmodium falciparum, 2µM, replicate R1, read-out: % inhibition female (individual replicates) R1
[6] = Plasmodium falciparum, 2µM, replicate R2, read-out: % inhibition female (individual replicates) R2
[7] = Plasmodium falciparum, 2µM, replicate R3, read-out: % inhibition female (individual replicates) R3
[8] = Plasmodium falciparum, 2µM, replicate R4, read-out: % inhibition female (individual replicates) R4
[9] = Plasmodium falciparum, 2µM, average of replicates, read-out: Average inhibition male (%)
[10] = Plasmodium falciparum, 2µM, replicate R1, read-out: % inhibition male (individual replicates) R1
[11] = Plasmodium falciparum, 2µM, replicate R2, read-out: % inhibition male (individual replicates) R2
[12] = Plasmodium falciparum, 2µM, replicate R3, read-out: % inhibition male (individual replicates) R3
[13] = Plasmodium falciparum, 2µM, replicate R4, read-out: % inhibition male (individual replicates) R4
[14] = PfDGFA at 2µM, average of replicates

With `CCOc1cc(OCC)c2ccccc2c1CNCCCCCCNCc1c(OCC)cc(OCC)c2ccccc12.CS(=O)(=O)O` [TCMDC-137982] the “Average inhibition female (%)” value ([1]; 2µM, average of replicates) was 82.9%, the “% inhibition female (individual replicates) R1” value ([1]; 2µM, replicate R1) was 76.1% and the “% inhibition female (individual replicates) R3” value ([1]; 2µM, replicate R3) was 92.8%. The “% inhibition female (individual replicates) R4” value ([1]; 2µM, replicate R4) was 83.8%, the “Selectivity ratio F” value [1] was 1.67 and the IC50 [1] was 1.7 µM. The “Average inhibition male (%)” value ([2]; 2µM, average of replicates) was 97.2%, the “% inhibition male (individual replicates) R1” value ([2]; 2µM, replicate R1) was 95.9% and the “% inhibition male (individual replicates) R3” value ([2]; 2µM, replicate R3) was 96.2%. The “% inhibition male (individual replicates) R4” value ([2]; 2µM, replicate R4) was 100.2%, the “Selectivity Ratio M” value [2] was 2.69 and the IC50 [2] was 1.06 µM. The Tox50 [3] was 2.84 µM.

With `CC(C)(C)c1ccc(-c2nc3c(ccc4nc(N)nc(N)c43)[nH]2)cc1.Cl` [TCMDC-137984] the “Selectivity ratio F” value [1] was 3.35, the inhibition at 2 µM [1, 4] was 42.3% and the inhibition at 2 µM [1, 5] was 35.1%. The inhibition at 2 µM [1, 6] was 50%, the inhibition at 2 µM [1, 7] was 42.4% and the inhibition at 2 µM [1, 8] was 41.7%. For the same compound, the IC50 ([1]; Plasmodium falciparum) was 0.97 µM, the “Selectivity Ratio M” value [2] was 17.94 and the inhibition at 2 µM [2, 9] was 99.4%. For the same compound, the inhibition at 2 µM [2, 10] was 99.9%, the inhibition at 2 µM [2, 11] was 99.6% and the inhibition at 2 µM [2, 12] was 98%. The inhibition at 2 µM [2, 13] was 100%, the IC50 ([2]; Plasmodium falciparum) was 0.18 µM and the Tox50 [3] was 3.25 µM.

With `Cn1c(-c2ccccc2)cc2c3c(N)nc(N)nc3ccc21` [TCMDC-137985] the “Selectivity ratio F” value [1] was 1.39, the “Average inhibition female (%)” value [1, 14] was 1.3% and the “% inhibition female (individual replicates) R1” value ([1]; PfDGFA at 2µM, replicate R1) was 15.4%. The “% inhibition female (individual replicates) R3” value ([1]; PfDGFA at 2µM, replicate R3) was -11.7%, the “% inhibition female (individual replicates) R4” value ([1]; PfDGFA at 2µM, replicate R4) was 3.6% and the IC50 [1] was 3.3 µM. The HitlevelF ([1]; 2µM) was 0, the “Selectivity Ratio M” value [2] was 2.45 and the “Average inhibition male (%)” value [2, 14] was 67.4%. The “% inhibition male (individual replicates) R1” value ([2]; PfDGFA at 2µM, replicate R1) was 74.3%, the “% inhibition male (individual replicates) R3” value ([2]; PfDGFA at 2µM, replicate R3) was 56.6% and the “% inhibition male (individual replicates) R4” value ([2]; PfDGFA at 2µM, replicate R4) was 64.0%. It also gave an IC50 [2] of 1.88 µM, a HitlevelM ([2]; 2µM) of 4 and a Tox50 [3] of 4.6 µM.

In the case of `CCCCCCCCN1CCN(CCCCCCNc2c3ccccc3nc3ccccc23)CC1.Cl` [TCMDC-138015], the “Selectivity ratio F” value [1] is reported as 2.15, the “Average inhibition female (%)” value [1, 14] is reported as 83.0% and the “% inhibition female (individual replicates) R1” value ([1]; PfDGFA at 2µM, replicate R1) is reported as 79.8%. For the same compound, the “% inhibition female (individual replicates) R3” value ([1]; PfDGFA at 2µM, replicate R3) was 90.0%, the “% inhibition female (individual replicates) R4” value ([1]; PfDGFA at 2µM, replicate R4) was 82.3% and the IC50 [1] was 1.91 µM. For the same compound, the HitlevelF ([1]; 2µM) was 4, the “Selectivity Ratio M” value [2] was 2.34 and the “Average inhibition male (%)” value [2, 14] was 63.5%. The “% inhibition male (individual replicates) R1” value ([2]; PfDGFA at 2µM, replicate R1) was 58.8%, the “% inhibition male (individual replicates) R3” value ([2]; PfDGFA at 2µM, replicate R3) was 66.4% and the “% inhibition male (individual replicates) R4” value ([2]; PfDGFA at 2µM, replicate R4) was 81.8%. The IC50 [2] was 1.76 µM, the HitlevelM ([2]; 2µM) was 3 and the Tox50 [3] was 4.12 µM.

In the case of `Cc1ccc(S(=O)(=O)N(CCCNCc2cccc(O)c2)c2ccccc2)cc1` [TCMDC-138022], the “Selectivity ratio F” value [1] is reported as 4.12, the inhibition at 2 µM [1, 4] is reported as 63.8% and the inhibition at 2 µM [1, 5] is reported as 52.6%. The inhibition at 2 µM [1, 6] was 60%, the inhibition at 2 µM [1, 7] was 91.9% and the inhibition at 2 µM [1, 8] was 50.6%. The IC50 ([1]; Plasmodium falciparum) was 7.66 µM, the “Selectivity Ratio M” value [2] was 100.82 and the inhibition at 2 µM [2, 9] was 98.1%. For the same compound, the inhibition at 2 µM [2, 10] was 102%, the inhibition at 2 µM [2, 11] was 101% and the inhibition at 2 µM [2, 12] was 97.3%. The inhibition at 2 µM [2, 13] was 91.8%, the IC50 ([2]; Plasmodium falciparum) was 0.31 µM and the Tox50 [3] was 31.57 µM.

With `CCN(CC)CC(O)CNc1c2ccc([N+](=O)[O-])cc2nc2cc(OC)c(OC)cc12.Cl` (stereo not shown) [TCMDC-138079] the “Average inhibition female (%)” value ([1]; 2µM, average of replicates) was 25.5%, the “% inhibition female (individual replicates) R1” value ([1]; 2µM, replicate R1) was 28.2% and the “% inhibition female (individual replicates) R3” value ([1]; 2µM, replicate R3) was 21.9%. For the same compound, the “% inhibition female (individual replicates) R4” value ([1]; 2µM, replicate R4) was 25.2%, the “Selectivity ratio F” value [1] was 0.86 and the IC50 [1] was 3.07 µM. For the same compound, the “Average inhibition male (%)” value ([2]; 2µM, average of replicates) was 95.0%, the “% inhibition male (individual replicates) R1” value ([2]; 2µM, replicate R1) was 93.0% and the “% inhibition male (individual replicates) R4” value ([2]; 2µM, replicate R4) was 92.3%. The “Selectivity Ratio M” value [2] was 6.3, the IC50 [2] was 0.42 µM and the Tox50 [3] was 2.63 µM.
